As a reminder, the Ki is a measure of affinity in units of concentration, obtained from inhibition or displacement.

The species named for one experiment is Homo sapiens. Kind of experiment: Selectivity for alpha-2a to that of alpha2b determined by their binding affinity ratios.
The target in experiment [1] is T1, Alpha-2B adrenergic receptor (Homo sapiens, UniProt P18089).
T1 sequence (P18089 whole entry): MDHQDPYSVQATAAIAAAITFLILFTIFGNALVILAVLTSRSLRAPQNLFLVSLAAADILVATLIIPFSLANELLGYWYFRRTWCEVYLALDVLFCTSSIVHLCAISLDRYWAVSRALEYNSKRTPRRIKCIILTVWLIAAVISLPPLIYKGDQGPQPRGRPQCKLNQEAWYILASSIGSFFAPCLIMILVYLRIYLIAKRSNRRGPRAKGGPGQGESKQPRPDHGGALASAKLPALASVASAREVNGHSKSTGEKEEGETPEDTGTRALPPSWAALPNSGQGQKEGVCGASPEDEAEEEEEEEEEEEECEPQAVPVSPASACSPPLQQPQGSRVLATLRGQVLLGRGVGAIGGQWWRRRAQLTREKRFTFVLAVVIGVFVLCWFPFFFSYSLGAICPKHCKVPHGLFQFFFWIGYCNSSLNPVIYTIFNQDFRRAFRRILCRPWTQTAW
The experiment can be described thus: biochemical. Format: cell-based, CHO.

Experiment [2] deals with T2, Alpha-2A adrenergic receptor (Homo sapiens, UniProt P08913).
T2 sequence (P08913 whole entry): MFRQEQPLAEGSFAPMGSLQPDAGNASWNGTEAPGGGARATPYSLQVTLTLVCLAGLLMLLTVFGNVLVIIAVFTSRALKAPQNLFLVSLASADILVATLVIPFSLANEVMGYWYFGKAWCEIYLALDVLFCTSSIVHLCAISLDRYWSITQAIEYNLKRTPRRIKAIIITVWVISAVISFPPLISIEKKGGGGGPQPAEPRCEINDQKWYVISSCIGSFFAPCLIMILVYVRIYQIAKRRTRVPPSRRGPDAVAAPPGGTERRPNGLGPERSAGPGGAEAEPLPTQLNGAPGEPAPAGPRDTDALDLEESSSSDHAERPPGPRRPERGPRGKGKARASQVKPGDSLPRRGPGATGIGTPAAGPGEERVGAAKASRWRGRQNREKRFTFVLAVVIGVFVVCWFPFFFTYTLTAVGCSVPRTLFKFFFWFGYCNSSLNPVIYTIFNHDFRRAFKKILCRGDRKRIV
The experiment can be described thus: Binding affinity against human Alpha-2A adrenergic receptor expressed stably in CHO cells using [3H]rauwolscine as radioligand. Format: cell-based.

With `O=C(NCCCCCCCCCCNC(=O)[C@@H]1[C@H]2C[C@H]3c4[nH]c5ccccc5c4CCN3C[C@@H]2CC[C@@H]1O)[C@@H]1[C@H]2C[C@H]3c4[nH]c5ccccc5c4CCN3C[C@@H]2CC[C@@H]1O`, the Selectivity in the experiment filed under Homo sapiens was 47.7.
As for `O=C(NCCCCCCCCNC(=O)[C@@H]1[C@H]2C[C@H]3c4[nH]c5ccccc5c4CCN3C[C@@H]2CC[C@@H]1O)[C@@H]1[C@H]2C[C@H]3c4[nH]c5ccccc5c4CCN3C[C@@H]2CC[C@@H]1O`, the Selectivity in the experiment listed under Homo sapiens worked out at 60.5.
Regarding `O=C(NCCCCCCCCCCCCNC(=O)[C@@H]1[C@H]2C[C@H]3c4[nH]c5ccccc5c4CCN3C[C@@H]2CC[C@@H]1O)[C@@H]1[C@H]2C[C@H]3c4[nH]c5ccccc5c4CCN3C[C@@H]2CC[C@@H]1O`, the Ki worked out at 18.5 nM in experiment [1] and 1.18 nM in experiment [2]. Moreover, the Selectivity in the experiment filed under Homo sapiens was found to be 15.7.
Consider `O=C(NCCCCCCCCCNC(=O)[C@@H]1[C@H]2C[C@H]3c4[nH]c5ccccc5c4CCN3C[C@@H]2CC[C@@H]1O)[C@@H]1[C@H]2C[C@H]3c4[nH]c5ccccc5c4CCN3C[C@@H]2CC[C@@H]1O`, for which the Ki came to 44.7 nM in experiment [1] and 1.25 nM in experiment [2]. In addition, the Selectivity in the experiment listed under Homo sapiens is 35.8.

These data come from ChEMBL document CHEMBL1133436 (Bioorg Med Chem Lett, 2000).
